Read-outs that look alike come from different tables or passages of the source.
System: nuclear p27 in LNCaP-S14 cells
Format: cell-based, human
[1] = primary screening, nuclear p27 in LNCaP-S14 cells
[2] = primary screening, S = strong, M = medium, W = weak by Z score

SMILES | Z score (aver) [1] | Clasf [2] | Clasf | Z score (aver) | percentage of p27 positive cells
COc1ccc(Cc2nccc3cc(OC)c(OC)cc23)cc1OC.Cl [1569F08] | 2.60 | W (weak (Z score 2-3) |  |  | 
C=C(CC)C(=O)c1ccc(OCC(=O)O)c(Cl)c1Cl [1568D20] | 3.20 | M (medium (Z score 3-5)) |  |  | 
CCCCCCc1ccc(O)cc1O [500E16] | 3.71 | M (medium (Z score 3-5)) |  |  | 
COc1ccc(S(=O)(=O)Nc2ccc3[nH]c(C(C)(C)C)cc3c2)cc1 [521I17] | 3.94 | M (medium (Z score 3-5)) |  |  | 
C[n+]1cc2c3c(ccc2c2ccc4cc5c(cc4c21)OCO5)OCO3.O=[N+]([O-])[O-] [501I17] | 4.78 | M (medium (Z score 3-5)) |  |  | 
Cl.O=C(OC(CCCN1CCOCC1)c1ccc(F)cc1)C(c1ccccc1)c1ccccc1 (stereo not shown) [519B04] | 2.10 | W (weak (Z score 2-3) |  |  | 
O=C(c1ccc(Cl)nc1)N(Cc1ccc(-c2cccs2)s1)C1CC1 [541H08] | 2.92 | W (weak (Z score 2-3) |  |  | 
COC1=CC(C)=CC(C)C(O)C(C)CC(C)=CC=CC(OC)C(C(C)C(O)C(C)C2CC(O)C(C)C(C(C)C)O2)OC1=O (stereo not shown) [1361J12] | 4.65 | M (medium (Z score 3-5)) |  |  | 
Cc1cc(N)c2ccccc2[n+]1CCCCCCCCCC[n+]1c(C)cc(N)c2ccccc21.Cl [1569M17] | 9.20 | S (strong (Z score > 5)) |  |  | 
O=C1c2ccccc2C(=O)N1Oc1ccc([N+](=O)[O-])c([N+](=O)[O-])c1 [669F07] | 3.84 | M (medium (Z score 3-5)) |  |  | 
CCOC(=O)c1cc2cccc(NS(=O)(=O)c3cccc(C(F)(F)F)c3)c2[nH]1 [520F11] | 7.25 | S (strong (Z score > 5)) |  |  | 
CC1OC(=O)C(C(C)C)NC(=O)C(C(C)C)OC(=O)C(C(C)C)NC(=O)C(C)OC(=O)C(C(C)C)NC(=O)C(C(C)C)OC(=O)C(C(C)C)NC(=O)C(C)OC(=O)C(C(C)C)NC(=O)C(C(C)C)OC(=O)C(C(C)C)NC1=O (stereo not shown) [1362N07] | 7.42 | S (strong (Z score > 5)) |  |  | 
CCN(CC)CCCC(C)Nc1c2ccc(Cl)cc2nc2ccc(OC)cc12 (stereo not shown) [1568P18] | 6.13 | S (strong (Z score > 5)) |  |  | 
Sc1nnc2c3ccccc3n(CCc3ccccc3)c2n1 [1160H09] | 2.51 | W (weak (Z score 2-3) |  |  | 
CCOC(=O)C1=C(C)N=c2sc(=Cc3ccc(N4CCOCC4)o3)c(=O)n2C1c1ccc2c(c1)OCO2 (stereo not shown) [1158O07] | 8.87 | S (strong (Z score > 5)) |  |  | 
CCCC(C(=O)OCCN(CC)CC)(c1ccccc1)c1ccccc1.Cl [1570K18] | 3.31 | M (medium (Z score 3-5)) |  |  | 
COc1ccc(CCN2CCC(Nc3nc4ccccc4n3Cc3ccc(F)cc3)CC2)cc1 [1568K14] |  |  | S (key: S: strong (Z score > 5); M: medium (Z score 3-5); W: weak (Z score 2-3) | 8.76 | 
CN(C)CCN(Cc1ccc(Cl)cc1)c1ccccn1.Cl [1570B15] | 8.42 | S (strong (Z score > 5)) |  |  | 
O=c1c(C(F)(F)F)cccn1CCc1nc(-c2ccccc2)cs1 [1520N01] | 3.32 | M (medium (Z score 3-5)) |  |  | 
CC=C(C)C(=O)OC1C(C)=C2C(C1OC(=O)CCCCCCC)C(C)(OC(C)=O)CC(OC(=O)CCC)C1(O)C2OC(=O)C1(C)O (stereo not shown) [1361L03] | 8.27 | S (strong (Z score > 5)) |  |  | 
Clc1ccc(CSC(Cn2ccnc2)c2ccc(Cl)cc2Cl)cc1.O=[N+]([O-])O (stereo not shown) [500K22] | 3.37 | M (medium (Z score 3-5)) |  |  | 
CCCNC(=O)Nc1nc(Nc2ccc(Cl)cc2)n[nH]1 [1520J18] | 3.47 | M (medium (Z score 3-5)) |  |  | 

SMILES | Z score (aver) [1] | Clasf [2] | Clasf | Z score (aver) | percentage of p27 positive cells
COc1ccc2c(c1)OC1(C=C2)N(C)c2ccccc2C1(C)C (stereo not shown) [1159E12] | 12.29 | S (strong (Z score > 5)) |  |  | 
O=C(NC1=C(Cl)C(=O)c2ccccc2C1=O)OC1CCCCCCC1 [567K05] | 2.74 | W (weak (Z score 2-3) |  |  | 
N#CC1(C#N)C(c2cccc(I)c2)C(C(N)=O)N2C=Cc3ccccc3C21 (stereo not shown) [669M10] | 6.90 | S (strong (Z score > 5)) |  |  | 
CC[C@H](CO)Nc1nc(NCc2ccccc2)c2ncn(C(C)C)c2n1 [roscovitine, reference compound] |  |  |  |  | up to 50%
N=C(NCCCCCCNC(=N)NC(=N)Nc1ccc(Cl)cc1)NC(=N)Nc1ccc(Cl)cc1 [1568M08] | 6.26 | S (strong (Z score > 5)) |  |  | 
CCC1(O)CC(OC2CC(N(C)C)C(OC3CC(O)C(OC4CCC(=O)C(C)O4)C(C)O3)C(C)O2)c2c(cc3c(c2O)C(=O)c2c(O)cccc2C3=O)C1C(=O)OC (stereo not shown) [502B20] | 3.61 | M (medium (Z score 3-5)) |  |  | 
N#CC1(C#N)C(c2ccccc2I)C(C(=O)C23CC4CC(CC(C4)C2)C3)N2c3ccccc3C=CC21 (stereo not shown) [669O10] | 6.23 | S (strong (Z score > 5)) |  |  | 
Cl.OCCN1CCN(CCCN2c3ccccc3Sc3ccc(C(F)(F)F)cc32)CC1 [1568P22] | 2.76 | W (weak (Z score 2-3) |  |  | 
CCN(CC)CCOC(=O)C1(C2CCCCC2)CCCCC1.Cl [500I04] | 5.96 | S (strong (Z score > 5)) |  |  | 
COC1CC(CC2CCC(C)C(C(C)C(=O)[O-])O2)OC2(OC(C)(C3CCC(C)(C4OC(C5OC(O)(CO)C(C)CC5C)CC4C)O3)CC2C)C1C.[Na+] (stereo not shown) [501K17] | 5.95 | S (strong (Z score > 5)) |  |  | 
Nc1ncn(C2OC(CO)C(O)C2O)c(=O)n1 (stereo not shown) [1570N13] | 7.46 | S (strong (Z score > 5)) |  |  | 
CCC(C(=O)[O-])C1CCC(C)C(C(C)C(O)C(C)C(=O)C(CC)C2OC3(C=CC(O)C4(CCC(C)(C5CCC(O)(CC)C(C)O5)O4)O3)C(C)CC2C)O1.[Na+] (stereo not shown) [502H07] | 6.22 | S (strong (Z score > 5)) |  |  | 
CN(C)CCC=C1c2ccccc2Sc2ccc(Cl)cc21.Cl [1569E17] | 3.86 | M (medium (Z score 3-5)) |  |  | 
CS(=O)(=O)c1ccc2[nH]c(C(=O)N3CCN(c4ncccc4C(F)(F)F)CC3)cc2c1 [519A06] | 2.71 | W (weak (Z score 2-3) |  |  | 
NC(CO)(CO)CO.O=C(c1ccccc1)c1ccc2n1CCC2C(=O)O (stereo not shown) [502J18] | 2.67 | W (weak (Z score 2-3) |  |  | 
CCN(CC)c1cc(-c2ccc(F)cc2)nc(-c2ccncc2)n1 [1306I06] | 3.11 | M (medium (Z score 3-5)) |  |  | 
CCN(C(=S)Nc1cccc(C(F)(F)F)c1)c1ccccc1 [541K01] | 4.12 | M (medium (Z score 3-5)) |  |  | 
COc1ccc(Br)cc1C1CC(=O)Nc2c1ccc1ccccc21 (stereo not shown) [1159L15] | 2.32 | W (weak (Z score 2-3) |  |  | 
CCCCc1ccc2nc(NC(=O)C3=NN(C)C(=O)CC3)sc2c1 [1715B12] | 2.67 | W (weak (Z score 2-3) |  |  | 
CC1CN(C(=O)c2cc(-c3ccc(Cl)cc3)cs2)CC(C)O1 (stereo not shown) [520H18] | 6.87 | S (strong (Z score > 5)) |  |  | 
N#Cc1c(N)nc(SCC(=O)NCc2ccccc2)c(C#N)c1-c1cccs1 [1159G21] | 3.48 | M (medium (Z score 3-5)) |  |  | 

Source: PMC3025922 (BMC Biology, 2010)
